{"source": "patent US20240082128A1", "about": "“COMPOSITION FOR USE IN DEGRADATION OF BIOFILM OR PREVENTION OF BIOFILM FORMATION” (Pharmiva AB, priority 2021, published 2024)", "key": {"biofilm": {"tested_on": "biofilm", "details": "for one hour; cited from earlier work"}, "microorganisms": {"tested_on": "microorganisms", "details": "5 nM hydrogen peroxide (endogenous stress); cited from earlier work"}, "Candida": {"tested_on": "Candida", "details": "cited from earlier work"}, "Lactobacillus": {"tested_on": "Lactobacillus", "details": "used for treatment of bacterial vaginosis; cited from earlier work"}, "Gardnerella vaginalis": {"tested_on": "Gardnerella vaginalis", "details": "cited from earlier work"}, "[1]": {"tested_on": "Candida albicans (ATCC 90028) biofilm", "test": "Biofilm biomass removal, crystal violet staining assay", "format": "cell-based", "details": "C. albicans", "description": "(§1) Gardnerella vaginalis (ATCC® 14018™) and Candida albicans (ATCC® 90028™) were grown on microtiter plates for 48 h at 37° C.±2° C. before being rinsed with PBS to remove planktonic cells. Thereafter the biofilms of the two microorganisms were exposed to the bulk cream and its components (as well as clinical comparators Metronidazole gel and Monistat 7) for 24 h at 37° C.±2° C. The efficacy of formulations in removing biofilm biomass of G. vaginalis and C. albicans was assessed using a crystal violet staining assay and the efficacy of formulations to decrease biofilm viability of G. vaginalis and C. albicans was assessed by plate count method."}, "[2]": {"tested_on": "Gardnerella vaginalis (ATCC 14018) biofilm", "test": "Biofilm biomass removal, crystal violet staining assay", "format": "cell-based", "details": "G. vaginalis", "description": "as §1"}, "[3]": {"tested_on": "Candida albicans (ATCC 90028) biofilm", "test": "Biofilm viability, plate count method", "format": "cell-based", "details": "C. albicans; 48 h biofilm exposed 24 h at 37° C.; mean ± SD", "description": "as §1"}, "[4]": {"tested_on": "Gardnerella vaginalis (ATCC 14018) biofilm", "test": "Biofilm viability, plate count method", "format": "cell-based", "details": "G. vaginalis", "description": "as §1"}, "[5]": {"test": "Viscosity of polymer gel used as biofilm extracellular matrix proxi (degradation)", "details": "10 g formulation added to gel, viscosity up to 24 hours", "description": "Three different gels were used in the study reported in Example 2 below: 2% natrosol gel, 2% alginate gel and 6% pectin gel. FeSO4 (10 mM) was added to the gels during manufacturing and acts as a catalysator and by mimic oxidation potential in biological fluids.\nThe alginate and Natrosol gel were manufactured by adding sodium Alginate/Natrosol to the water solution containing FeSO4, during stirring. The pectin gel was manufactured by heating the water to 80° C. and add pectin as well as FeSO4 during stirring. After manufacture, 6 glass vials (60 mL) were filled with 40 mL of the gel.\nIn general, biofilms consist of polymers consisting of polysaccharides, most commonly alginates, extracellular proteins, DNA and small amounts of surfactants and lipid. In this experiment, commercially available polymers were used as proxi (i.e. a measurement of one physical quantity (polymer) as an indicator of the value of another (biofilm)) to model the extracellular matrix of biofilm. […]\nFor each test, following method was used: First, viscosity of the pure gel was measured. […] Viscosity was measured immediately before addition of the formulation or composition, immediately after addition of the formulation or composition, 10 min, 1 hour and 24 hours addition of the formulation or composition. […]"}, "[6]": {"details": "48 h biofilm exposed 24 h at 37° C."}, "[7]": {"details": "48 h biofilm exposed 24 h at 37° C., mean ± SD, n = 3"}}, "note": "Entries after “also recorded” stand apart in the source; their conditions may differ."}
{"compound": "OO", "note": "[hydrogen peroxide]", "values": [{"measurement": "Concentration needed as sole agent to reduce the amount of biofilm by 85%", "setting": "biofilm", "result": 0.5, "unit": "% w/w"}, {"measurement": "Effect on biofilm formation", "setting": "microorganisms", "result": "biofilm formation was promoted"}]}
{"compound": "CCCCCCCCCCCC(=O)OCC(O)CO", "note": "(stereo not shown) [glycerol monolaurate]", "values": [{"measurement": "Inhibitory effect", "setting": "Candida", "result": "inhibitory effect"}, {"measurement": "Influence on Lactobacillus count", "setting": "Lactobacillus", "result": "does not influence Lactobacillus count"}, {"measurement": "Inhibitory effect", "setting": "Gardnerella vaginalis", "result": "inhibitory effect"}]}
{"compound": "OO", "note": "[0.3% H2O2 aq. sol., hydrogen peroxide]", "values": [{"measurement": "Removal of biofilm biomass (in words)", "setting": "[1]; 24 hours incubation, FIG. 3A", "result": "efficiently remove biomass"}, {"measurement": "Biofilm forming potential", "setting": "[1]; [6]", "result": "Medium"}, {"measurement": "Biofilm biomass, optical density at 570 nm", "setting": "[1]; [7]", "result": "0.46 ± 0.11"}, {"measurement": "Removal of biofilm biomass (in words)", "setting": "[2]; 24 hours incubation, FIG. 3B, listed as 0.3% H2O2 solution", "result": "efficiently diminish the biofilm biomass; also recorded: efficiently remove biomass"}, {"measurement": "Biofilm forming potential", "setting": "[2]; [6]", "result": "Low/no"}, {"measurement": "Biofilm biomass, optical density at 570 nm", "setting": "[2]; [7]", "result": "0.27 ± 0.002"}, {"measurement": "Biofilm viability", "setting": "[3]", "result": "2.90 ± 0.130", "unit": "Log10 CFU/mL"}, {"measurement": "Biofilm viability", "setting": "[4]; 48 h biofilm exposed 24 h at 37° C., mean ± SD", "result": "2.47 ± 0.119", "unit": "Log10 CFU/mL"}, {"measurement": "Decrease of biofilm viability (in words)", "setting": "[4]; FIG. 4B", "result": "efficiently decrease the viability"}]}
{"compound": "lactic acid [0.3% lactic acid solution with 0.7% NaOH]", "values": [{"measurement": "Decrease in viscosity of polymer gel with time (polymer degradation)", "setting": "[5]; Alginate gel, FIGS. 1B, 2B", "result": "viscosity decrease was observed over time"}, {"measurement": "Decrease in viscosity of polymer gel with time (polymer degradation)", "setting": "[5]; Natrosol gel, FIGS. 1A, 2A", "result": "viscosity decrease was observed over time"}]}
